Key:
Type in all cases: in vivo
[1] = test system: mice (tail flick, heat beam pain reaction); assay: Tail flick Test in Mice; settings: sc, 0.5 h; mouse, s.c.; 30 minutes after administration; >75% increase of reaction time in 50% of animals
Description: (§1) This analgesic activity has been evaluated in two pharmacological standard methods, the tail flick test in mice and the arthritis pain test in rats.
3. Tail flick Test in Mice.
This test is carried out according to the method described by D'Amour and Smith (1941), yet fed male and female mice having a body weight of 16 to 25 g are used instead of rats. Thirty minutes prior to treatment with the test compound, each mouse is placed separately in a cylindrical container in such a manner that it cannot turn itself or move forward. Its tail is positioned in a narrow groove projecting out of the container. A certain point of the tail of each animal (about 35 mm beyond the root of the tail) is subjected to the heat beam of a lamp of known strength and temperature which is positioned directly under the tail. The number of seconds which pass before the mouse moves its tail out of the light beam is determined twice, once 30 minutes and once 15 minutes prior to subcutaneous administration of the test compound (10 mg/kg). Mice which show a reaction time differing more than 25% are eliminated from the test. The reaction time is again determined 15 minutes and 30 minutes after the treatment and an increase of the reaction period of more than 75% of the average values prior to treatment in the same animal is considered as showing an analgesic effect. The ED50 (95% reliability) of each test compound 30 minutes after administration is evaluated according to the method of Litchfield and Wilcoxon (1949). The dose which increases the reaction time as compared to the reaction time prior to treatment for more than 75% in 50% of the animals is considered as ED50.

[2] = test system: male mice; assay: Determination of the Minimal Toxic Dose (oral, mice); settings: mouse, p.o.; observed 3 h, symptoms and deaths over 24 h
Description: 1. Determination of the Minimal Toxic Dose.
Maximum doses of 300 mg/kg of the test compound are administered orally to three male mice having a weight of 20-25 g and toxicity symptoms are carefully observed for a period of three hours. Furthermore, over a period of 24 hours from the administration all symptoms and deaths are registered. Side-symptoms are also observed and registered. Depending on their water solubility, the test compounds are administered either in form of aqueous solutions or in form of suspensions without the use of solvents. In order to maintain a stable suspension of the test compound, one drop of Tween-80 can be added and the mixture can be mechanically homogenized. In the case of compounds where deaths or toxic symptoms have been observed, additional mice are treated with decreasing doses until a dose is reached at which no toxic symptoms occur. The lowest dose which causes toxic symptoms is considered the minimal toxic dose.

[3] = test system: rats (secondary arthritis pain, mycobacterium smegmae); assay: Arthritis Pain Test in Rats; settings: po, rat, p.o., 3 hours after administration, protection in 50% of treated animals
Description: as §1
2. Arthritis Pain Test in Rats.
Male rats having a weight of from 160 to 180 g are anesthetized by small i.p. injection of 20 mg/kg of sodium pentobarbital and 0.1 ml of a suspension of mycobacterium smegmae (SI 043) in liquid paraffin (0.6 mg mycobacterium/0.1 ml of oil) are injected intracutaneously into the left rear paw. Fourteen days later when a marked secondary arthritis has developed in particular in the right rear paw, the effect of the test compound is evaluated. A control-reading is taken 30 minutes prior to administration of the test compound by bending the foot joint of the right rear paw three times and counting the number of squeakings. […] Three hours after oral administration of the test compound the bending of the joint is repeated. Animals which squeak only once or not at all are considered to be protected against pain. Between about 9 and 20 rats are used per dose and the ED50 (95% reliability) is determined according to the method of Litchfield and Wilcoxon (1949). The dose which provides protection in 50% of the treated animals is taken as ED50.

Compound | ED50 [1] | MDL (minimal toxic dose) [2] | ED50 [3]
Cc1ccc(C(=O)NCC2CN=C(c3ccccc3)c3ccccc3N2C)s1 (stereo not drawn) [Compound 12, 1-methyl-2-[(5-methylthiophene-2-carbonyl)-aminomethyl]-5-phenyl-1H-2,3-dihydro-1,4-benzodiazepine] | 2.8 mg/kg | > 300 mg/kg | 10 mg/kg
Cc1cc2c(cc1C)N(C)C(CNC(=O)c1ccoc1)CN=C2c1ccccc1 (stereo not drawn) [Compound 8, 1,7,8-trimethyl-2-[(furane-3-carbonyl)-aminomethyl]-5-phenyl-1H-2,3-dihydro-1,4-benzodiazepine] | 8 mg/kg | > 200 mg/kg | 14 mg/kg
CN1c2ccccc2C(c2ccccc2)=NCC1CNC(=O)c1ccco1 (stereo not drawn) [Compound 2, 1-methyl-2-[(furane-2-carbonyl)-aminomethyl]-5-phenyl-1H-2,3-dihydro-1,4-benzodiazepine] | 2.8 mg/kg | > 300 mg/kg | 32 mg/kg
Cc1ccc2c(c1)C(c1ccccc1)=NCC(CNC(=O)c1ccoc1)N2C (stereo not drawn) [Compound 11, 1,7-dimethyl-2-[(furane-3-carbonyl)-aminomethyl]-5-phenyl-1H-2,3-dihydro-1,4-benzodiazepine] | 1.2 mg/kg | > 300 mg/kg | 30 mg/kg
COc1cccc(C2=NCC(CNC(=O)c3ccsc3)N(C)c3ccccc32)c1 (stereo not drawn) [Compound 16, 1-methyl-2-[(thiophene-3-carbonyl)-aminomethyl]-5-(3-methoxyphenyl)-1H-2,3-dihydro-1,4-benzodiazepine] | 0.5 mg/kg | > 300 mg/kg | 32 mg/kg
CN1c2ccccc2C(c2ccccc2F)=NCC1CNC(=O)c1ccsc1 (stereo not drawn) [Compound 20, 1-methyl-2-[(thiophene-3-carbonyl)-aminomethyl]-5-(2-fluorophenyl)-1H-2,3-dihydro-1,4-benzodiazepine] | 1.1 mg/kg | > 300 mg/kg | 18 mg/kg
COc1ccc2c(c1)N(C)C(CNC(=O)c1cccs1)CN=C2c1ccccc1 (stereo not drawn) [Compound 3, 8-methoxy-1-methyl-2-[(thiophene-2-carbonyl)-aminomethyl]-5-phenyl-1H-2,3-dihydro-1,4-benzodiazepine] | 5.3 mg/kg | > 200 mg/kg | 20 mg/kg
COc1ccc2c(c1)N(C)C(CNC(=O)c1ccsc1)CN=C2c1ccccc1 (stereo not drawn) [Compound 5, 8-methoxy-1-methyl-2-[(thiophene-3-carbonyl)-aminomethyl]-5-phenyl-1H-2,3-dihydro-1,4-benzodiazepine] | 2.4 mg/kg | > 200 mg/kg | 15 mg/kg
CN1c2ccccc2C(c2ccccc2)=NCC1CNC(=O)c1ccsc1 (stereo not drawn) [Compound 7, 1-methyl-2-[(thiophene-3-carbonyl)-aminomethyl]-5-phenyl-1H-2,3-dihydro-1,4-benzodiazepine] | 0.22 mg/kg | > 200 mg/kg | 19 mg/kg
COc1ccc2c(c1)N(C)C(CNC(=O)c1ccoc1)CN=C2c1ccccc1 (stereo not drawn) [Compound 6, 8-methoxy-1-methyl-2-[(furane-3-carbonyl)-aminomethyl]-5-phenyl-1H-2,3-dihydro-1,4-benzodiazepine] | 2.8 mg/kg | > 50 mg/kg | 9 mg/kg
COc1ccc2c(c1)C(c1ccccc1)=NCC(CNC(=O)c1ccoc1)N2C (stereo not drawn) [Compound 15, 7-methoxy-1-methyl-2-[(furane-3-carbonyl)-aminomethyl]-5-phenyl-1H-2,3-dihydro-1,4-benzodiazepine] | 8.5 mg/kg | > 300 mg/kg | 32 mg/kg
COc1ccc2c(c1)N(C)C(CNC(=O)c1ccc(C)s1)CN=C2c1ccccc1 (stereo not drawn) [Compound 9, 8-methoxy-1-methyl-2-[(5-methylthiophene-2-carbonyl)-aminomethyl]-5-phenyl-1H-2,3-dihydro-1,4-benzodiazepine] | 5.6 mg/kg | > 200 mg/kg | 14 mg/kg
